Laboratory results published in patent US20240148682A1, “METHOD FOR REGULATING DOWNSTREAM SIGNALING PATHWAY MEDIATED BY ACTIVATION OF TRIMETHYLAMINE-N-OXIDE” (China Medical University, priority 2022, published 2024).

Columns and labels:
[1] = test system: miR-221; assay: Quantitative PCR of miR-221 expression in hEPCs; type: cell-based, human; conditions: for inhibiting the expression of miR-221: trimethylamine-N-oxide 300 μM, 125 μM DHA (embodiment 3) or EPA (embodiment 6), 24 hours, compared with comparison group 1
Method: To analyze the effects of the omega-3 polyunsaturated fatty in inhibiting the inflammatory responses induced by the activation of the trimethylamine-N-oxide, human endothelial progenitor cells are cultured in the MCDB-131 medium supplemented with the 10% fetal bovine serum and the EGM™-2 growth kit and are administered separately with reagent formulations of the control group 1, the comparison group 1, and the embodiments 1 to 6 shown in Table 1. After the culture time of 24 hours has elapsed, the expressions of cytokines related to the inflammatory responses in the human endothelial progenitor cells are analyzed by enzyme-linked immunosorbent assay (ELISA) and quantitative PCR (qPCR) so as to evaluate the effects of the omega-3 polyunsaturated fatty acids in inhibiting the inflammatory responses mediated by the activation of the trimethylamine-N-oxide. Each experiment is repeated 3 times.
In detail, according to the previous studies, miRNA-221 (“miR-221” hereafter) plays an essential role in the physiological metabolism of the human endothelial progenitor cells. […] Therefore, the present disclosure uses the quantitative PCR and the enzyme-linked immunosorbent assay to analyze the expressions of miR-221 and IL-6 in the human endothelial progenitor cells of the control group 1, the comparison group 1, and the embodiments 1 to 6 after cell culture for 24 hours so as to evaluate the effects of the omega-3 polyunsaturated fatty acids in inhibiting the inflammatory responses induced by the activation of the trimethylamine-N-oxide.
Furthermore, the operation details of the quantitative PCR and the enzyme-linked immunosorbent assay are well-known in the art and can be adjusted according to the experimental requirements, so the detailed steps thereof will not be described herein again.

[2] = test system: human endothelial progenitor cells; assay: Neovasculogenesis index of hEPCs on Matrigel (Calcein-AM); type: cell-based; conditions: SCF 20 ng/mL, trimethylamine-N-oxide 300 μM (comparison group 3) vs SCF alone (comparison group 2), p<0.05
Method: (§1) To analyze the effects of the omega-3 polyunsaturated fatty acids in alleviating the impairment of neovascularization induced by the activation of the trimethylamine-N-oxide, human endothelial progenitor cells are cultured in the MCDB-131 medium containing the EGM™-2 growth kit and the 10% fetal bovine serum in a Matrigel-coated 96-well plate. Then, the human endothelial progenitor cells are administered separately with reagent formulations of the control group 2, the comparison groups 2 to 3, and the embodiments 7 to 9 shown in Table 2, and incubated in an incubator at 37° C. for 8 hours.
After the culture time of 8 hours has elapsed, the human endothelial progenitor cells are fixed in glutaraldehyde/paraformaldehyde solution and treated with Calcein-AM solution so as to detect the fluorescent signals of different groups. The proteins of the human endothelial progenitor cells are extracted and analyzed by the Western blot analysis to confirm the expressions of factors related to the Akt/eNOS signaling pathway, the MAPK/ERK signaling pathway and the expression of gamma-glutamylcysteine synthetase (“γ-GCS” hereafter), wherein the γ-GCS participates in the synthesis of GSH. The GSH/GSSG ratios in the human endothelial progenitor cells are analyzed by using the liquid chromatography, the electrospray ionization, and the mass spectrometry. Each experiment is repeated 3 times.

[3] = test system: Akt/eNOS signaling pathway and MAPK/ERK signaling pathway; assay: Western blot of factors of the Akt/eNOS and MAPK/ERK signaling pathways in SCF-treated hEPCs; type: cell-based, human; conditions: SCF 20 ng/mL, trimethylamine-N-oxide 300 μM (comparison group 3) vs SCF alone (comparison group 2), 8 hours
Method: as §1
(§2) After the culture time of 8 hours has elapsed, the human endothelial progenitor cells are fixed in glutaraldehyde/paraformaldehyde solution and treated with Calcein-AM solution so as to detect the fluorescent signals of different groups. The proteins of the human endothelial progenitor cells are extracted and analyzed by the Western blot analysis to confirm the expressions of factors related to the Akt/eNOS signaling pathway, the MAPK/ERK signaling pathway and the expression of gamma-glutamylcysteine synthetase (“γ-GCS” hereafter), wherein the γ-GCS participates in the synthesis of GSH. The GSH/GSSG ratios in the human endothelial progenitor cells are analyzed by using the liquid chromatography, the electrospray ionization, and the mass spectrometry. Each experiment is repeated 3 times. […]

[4] = test system: human endothelial progenitor cells; assay: GSH/GSSG ratio in hEPCs by liquid chromatography, electrospray ionization, mass spectrometry; type: cell-based; conditions: SCF 20 ng/mL, trimethylamine-N-oxide 300 μM (comparison group 3) vs SCF alone (comparison group 2), p<0.05
Method: as §1, §2

| Compound | inhibiting the expression of miR-221 [1] [%] | neovasculogenesis index [2] | expression of miR-221 ([1]; trimethylamine-N-oxide 300 μM alone (comparison group 1) vs control group 1, 24 hours) | expressions of p-Akt, p-eNOS, and p-ERK1/2 [3] | GSH/GSSG ratio [4] |
| --- | --- | --- | --- | --- | --- |
| CC/C=C\C/C=C\C/C=C\C/C=C\C/C=C\C/C=C\CCC(=O)O [DHA, docosahexaenoic acid] | 85 | – | – | – | – |
| CC/C=C\C/C=C\C/C=C\C/C=C\C/C=C\CCCC(=O)O [EPA, eicosapentaenoic acid] | 75 | – | – | – | – |
| C[N+](C)(C)[O-] [trimethylamine-N-oxide, Trimethylamine-N-oxide] | – | significantly lower | significantly higher | lower | significantly lower |
